Data on nine compounds can be found in US20260337153A1, “IONIZABLE AMINE LIPIDS” (Intellia Therapeutics, Inc., priority 2023, published 2026).

Like-named read-outs stand apart in the source and are kept apart here.

The nature of series [1]: pKa of unformulated amine lipid by TNS fluorescence. It counts as physicochemical. As for the experimental part: The pKa of each amine lipid was determined according to the method in Jayaraman, et al. (Angew Chem Int Ed Engl 51(34), 2012, 8529-8533) with the following adaptations. The pKa was determined for unformulated amine lipid in ethanol. Lipid stock solutions (2.94 mM) were diluted into Sodium Phosphate Buffers (0.1 M, Boston Bioproducts) of different pH (pH-range: 4.5-9.0) yielding a final lipid concentration of approx. 100 μM. The test samples were supplemented with TNS {6-(p-Toluidino)-2-naphthalenesulfonic acid sodium salt}, incubated and the fluorescence intensity was measured using excitation and emission wavelengths of 321 nm and 448 nm, respectively. The recorded data were normalized and the respective pKa values were derived from sigmoidal fitting.

Another series has as its system rat TTR gene. As to the kind of experiment: In vivo editing of TTR in rat liver after LNP delivery (NGS, % editing). The arrangement: species or system rat (Sprague-Dawley). As for the experimental part: LNPs were prepared using various amine lipids in a 4-component lipid system consisting of an ionizable lipid (e.g., an amine lipid), DSPC, cholesterol and a PEG lipid (e.g., PEG2K-DMG, C13 Ether, C14 Ether). In assays for percent liver editing in rats, Cas9 mRNA and chemically modified sgRNA targeting a rat sequence were formulated in LNPs, at either a 1:1 w/w ratio or a 1:2 w/w sgRNA:Cas9 mRNA ratio.
The lipid components were dissolved in 100% ethanol with the lipid component molar ratios described below. The chemically modified sgRNA and Cas9 mRNA were combined and dissolved in 25 mM citrate, 100 mM NaCl, pH 5.0, resulting in a concentration of total RNA cargo of approximately 0.45 mg/mL. The LNPs were formulated with an N:P ratio of about 6, with the ratio of chemically modified sgRNA:Cas9 mRNA at either a 1:1 or 1:2 w/w ratio as described below.
The LNPs were formed by an impinging jet mixing of the lipid in ethanol with two volumes of RNA solution and one volume of water. First, the lipid in ethanol is mixed through a mixing cross with the two volumes of RNA solution. Then, a fourth stream of water is mixed with the outlet stream of the cross through an inline tee. (See, e.g., WO2016010840, FIG. 2). The LNPs were held for 1 hour at room temperature, and further diluted with water (approximately 1:1 v/v). Diluted LNPs were buffer exchanged into 50 mM Tris, 45 mM NaCl, 5% (w/v) sucrose, pH 7.5 (TSS) and concentrated as needed by methods known in the art. The resulting mixture was then filtered using a 0.2 μm sterile filter. The final LNP was stored at 4° C. or −80° C. until further use.
Sprague-Dawley female rats, ranging from 6-10 weeks of age were used in each study. Animals were weighed and dosed based on individual body weight measured the morning of dosing. LNPs were dosed via the lateral tail vein in a volume of 2 mL per kilogram of animal body weight. The animals were periodically observed for adverse effects for at least 24 hours post dose.
For studies measuring in vivo editing in liver, Sprague-Dawley female rats were dosed at 0.1 mpk or 0.03 mpk, unless otherwise noted. Animals were euthanized at 6 or 7 days by carbon dioxide asphyxiation and a heart clip or by ex sanguination via cardiac puncture under isoflourane anesthesia. Blood was collected into serum separator tubes. Liver tissue was collected. Genomic DNA was isolated from the liver tissue for editing measurement by Next-Generation Sequencing (NGS).
In brief, to quantitatively determine the efficiency of editing at the target location in the genome, genomic DNA was isolated and deep sequencing was utilized to identify the presence of insertions and deletions introduced by gene editing.
PCR primers were designed around the target site (e.g., TTR), and the genomic area of interest was amplified. Additional PCR was performed according to the manufacturer's protocols (Illumina) to add the necessary chemistry for sequencing. The amplicons were sequenced on an Illumina MiSeq instrument. The reads were aligned to the […] after eliminating those having low quality scores. The resulting files containing the reads were mapped to the reference genome (BAM files), where reads that overlapped the target region of interest were selected and the number of wild type reads versus the number of reads which contain an insertion, substitution, or deletion was calculated.
The editing percentage (e.g., the “indel efficiency” or “percent indels” or “% editing” or “% indel”) can be defined as the total number of sequence reads with insertions or deletions over the total number of sequence reads, including wild type.
In vivo editing efficiency for materials delivered with formulations including various amine lipid (or ionizable lipid) compounds in Experiments 1 through 14 as described in Tables 3 and 4 was assessed. Editing was measured using G000534 (SEQ ID NO: 5) which targets the rat TTR gene. […]

Setting [2] is: sodium phosphate buffer, Table 2, unformulated amine lipid, TNS, read-out: Lipid pKa.
The mark [3] stands for this setting: Experiment 14, 0.03 mpk, LNP with C13 Ether.
Setting [4] is: Experiment 7, 0.1 mpk, LNP with PEG2K-DMG.

`CCCCC/C=C\C/C=C\CCCCCCCC(=O)OCC(CCCCCCCCC(=O)OC(CCCC)CCCC)COC(=O)OCCCN(CC)CC` (stereo not drawn) [Compound 21, 2-((((3-(diethylamino)propoxy)carbonyl)oxy)methyl)-11-(nonan-5-yloxy)-11-oxoundecyl (9Z,12Z)-octadeca-9,12-dienoate]: the pKa in series [1] (setting [2]) was 6.2.

In the series with rat TTR gene (setting [3]), `CCCCCCCCC(CCCCCCCC)OC(=O)CCCCCC(=O)OCC(COC(=O)CCCCCC(=O)OC(CCCCCCCC)CCCCCCCC)COC(=O)NCCN(CC)CC` [Compound 38, O′1,O1-(2-((((2-(diethylamino)ethyl)carbamoyl)oxy)methyl)propane-1,3-diyl) 7,7′-di(heptadecan-9-yl) di(heptanedioate)] yielded a Mean % editing of 19.4%. For the same compound, the pKa in series [1] (setting [2]) was determined as 6.56.

The compound `CCCCCCCCC(CCCCCCCC)C(=O)OCCCC(=O)OCC(COC(=O)CCCOC(=O)C(CCCCCCCC)CCCCCCCC)COC(=O)NCCN(CC)CC` [Compound 39, [4-[2-[2-(diethylamino)ethylcarbamoyloxymethyl]-3-[4-(2-octyldecanoyloxy)butanoyloxy]propoxy]-4-oxo-butyl]2-octyldecanoate] returned a Mean % editing with rat TTR gene (setting [3]) of 11.3%. For the same compound, the pKa in series [1] (setting [2]) came to 6.63.

Compound `CCCCCCCCOC(CCC(=O)OCC(COC(=O)CC(CCCC)CCCCCC)COC(=O)NCCN(CC)CC)OCCCCCCCC` (stereo not drawn) [Compound 44, 3-((4,4-bis(octyloxy)butanoyl)oxy)-2-((((2-(diethylamino)ethyl)carbamoyl)oxy)methyl)propyl 3-butylnonanoate] had a Mean % editing in the series on rat TTR gene (setting [4]) of 59.8%.

In the series with rat TTR gene (setting [4]), `CCCCCCCCOC(CCC(=O)OCC(COC(=O)CCCCCCCC)COC(=O)OCCCN(CC)CC)OCCCCCCCC` (stereo not drawn) [Compound 45, 3-((4,4-bis(octyloxy)butanoyl)oxy)-2-((((3-(diethylamino)propoxy)carbonyl)oxy)methyl)propyl Nonanoate] displayed a Mean % editing of 1.8%.

In the case of `CCCCCCCCOC(CCC(=O)OCC(COC(=O)CCCCCCCC)COC(=O)NCCN(CC)CC)OCCCCCCCC` (stereo not drawn) [Compound 46, 3-((4,4-bis(octyloxy)butanoyl)oxy)-2-((((2-(diethylamino)ethyl)carbamoyl)oxy)methyl)propyl Nonanoate], the Mean % editing in the series on rat TTR gene (setting [4]) is listed as 0.2%.

For `CCCCCCCCOC(CCC(=O)OCC(COC(=O)OCCCN(CC)CC)COC(=O)C(CCCC)CCCCCC)OCCCCCCCC` (stereo not drawn) [Compound 47, 3-((4,4-bis(octyloxy)butanoyl)oxy)-2-((((3-(diethylamino)propoxy)carbonyl)oxy)methyl)propyl 2-butyloctanoate], in the series on rat TTR gene (setting [4]), the Mean % editing came to 56.3%.

Regarding `CCCCC/C=C\C/C=C\CCCCCCCC(=O)OCC(COC(=O)CCCC(=O)OC(CCCCCCCC)CCCCCCCC)COC(=O)OCC1CCCN(CC)C1` (stereo not drawn) [Compound 62, 3-((((1-ethylpiperidin-3-yl)methoxy)carbonyl)oxy)-2-((((9Z,12Z)-octadeca-9,12-dienoyl)oxy)methyl)propyl heptadecan-9-yl glutarate], the Mean % editing in the series with rat TTR gene (Table 8, 0.03 mpk, LNP with C13 Ether) is on record as 28.0%.

In the case of `CCCCCCCCC(CCCCCCCC)OC(=O)CCCCC(=O)OCC(COC(=O)CCCCC(=O)OC(CCCCCCCC)CCCCCCCC)COC(=O)OCCCN1CCCC1` [Compound 69, di(heptadecan-9-yl) O,O′-(2-((((3-(pyrrolidin-1-yl)propoxy)carbonyl)oxy)methyl)propane-1,3-diyl) diadipate], the “Mean % editing in rat liver” value with rat TTR gene (NGS, dose 0.03 mpk, LNP with G000534 sgRNA and Cas9 mRNA 1:2 w/w, 3% C13 Ether (Compound 53: 3% PEG2K-DMG), N=5 (Compound 33: N=4)) worked out at 7.3%. For the same compound, in series [1] (read-out: pKa), the pKa came out at 6.4.

For orientation: pKa means the negative logarithm of the acid dissociation constant.
